System: secretory IgA and serum IgG antibodies
Assay: Oral immunization with OVA nanoparticles, ELISA of secretory IgA and serum IgG antibodies
Assay type: in vivo, male Sprague-Dawley adult rats
Conditions: immunizations at week 0 and week 4
Procedure: Once the particles were generated and washed they were introduced orally into experimental animals (male Sprague-Dawley adult rats (200-250 g wt., 12-15 weeks old, Harlow). Ten animals were used for each group. About 1 mg of dry weight of nanoparticles in the reaction mixture has been administered orally into the stomach of each animal. The nonloaded (#8) nanoparticles were also administered to control animals, in addition to a soluble antigen (OVA)(#9). ELISA assay of secretory IgA and serum IgG antibodies was carried out as described [Challacombe, et al., Enhanced secretory IgA and systemic IgG antibody response after oral immunization with biodegradable microcapsules containing antigen. Immunology 76: 164-168 (1992)]. Primary and secondary immunization protocol was used, consisting of two immunizations at week 0 and at week 4. […] In another set of experiments nonloaded nanoparticles (no OVA) were separately tested in simulated gastric (pH 2) and intestinal (pH 8.3) solutions for their stability. […] Similar results in terms of antibodies and release characteristics were obtained for tetanus toxoid antigen.

Substance: ovalbumin (egg albumin) [Sol OVA, soluble ovalbumin antigen from Sigma]
- Response to oral delivery of nanoparticulate OVA antigen, Mean (Day 28, rats): 75.0
- Response to oral delivery of nanoparticulate OVA antigen, Mean (Day 56, rats): 550.0
